What was measured:
hKv3.1 = biological target: T1, hKv3.1 (Homo sapiens, UniProt P48547); test: Automated patch clamp (Patchliner) whole-cell electrophysiology, Kv3.1; type: cell-based; conditions: 10 μM compound, CHO-K1 cells stably expressing hKv3.1; for Kv3.1 Activity at 10 μM Potentiation (%): % potentiation of peak current at −10 mV voltage step vs vehicle; for Kv3.1 Activity at 10 μM Voltage Shift (mV): voltage shift of the IV curve at V1/2
T1 construct: expressed in transfected cells
T1 sequence (P48547 1-511): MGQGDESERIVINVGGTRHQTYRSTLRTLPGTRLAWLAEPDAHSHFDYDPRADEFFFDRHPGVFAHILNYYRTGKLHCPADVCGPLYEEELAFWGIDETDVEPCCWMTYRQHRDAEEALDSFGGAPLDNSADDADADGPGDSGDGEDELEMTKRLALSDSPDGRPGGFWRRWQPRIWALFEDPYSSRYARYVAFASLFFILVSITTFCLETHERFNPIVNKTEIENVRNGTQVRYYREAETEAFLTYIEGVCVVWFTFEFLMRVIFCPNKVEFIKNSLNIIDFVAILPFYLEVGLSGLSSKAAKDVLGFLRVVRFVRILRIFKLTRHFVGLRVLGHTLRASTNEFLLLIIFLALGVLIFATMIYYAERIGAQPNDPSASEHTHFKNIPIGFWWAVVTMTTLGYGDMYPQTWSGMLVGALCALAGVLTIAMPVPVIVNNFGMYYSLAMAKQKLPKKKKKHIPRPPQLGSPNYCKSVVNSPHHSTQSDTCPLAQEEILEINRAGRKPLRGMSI
Experimental: (§1) hKv3.1, hKv3.2, hKv3.3, and hKv3.4 were stably expressed in CHO-K1 (Chinese hamster ovary) cells and kept under constant antibiotic selection. For in vitro assays, cells were maintained in appropriate growth medium at 37° C. and 5% CO2 in a humidified incubator.
(§2) hKv3.X expressing cells were plated in T-25 flasks for 3-4 days at 37° C. (no selection antibiotic) prior to use and grown to 80% confluence. Cells were washed twice with PBS (calcium and magnesium free) and detached with a 5-minute treatment at 37° C. with 2-3 mls of Accutase®. Cells were collected, and flask was washed in CHO-SFM II media (Life Technologies Gibco), centrifuged for 2 minutes at ˜110×g and resuspended to obtain a single cell suspension of ˜2-3×10^6 cells/ml.
(§3) The intracellular solution contained the following (in mM): KCl 50, NaCl 10, KF 60, EGTA 20, HEPES 10, adjusted to pH 7.2 with KOH and an osmolarity of 285 mOsmol. Seal enhancer was purchased from Nanion (80 mM NaCl, 3 mM KCl, 10 mM MgCl2, 35 mM CaCl2), 10 mM HEPES, pH7.4, 298 mOsmol. The external solution contained (in mM): NaCl 140, KCl 4, CaCl2) 2, MgCl2 1, HEPES 10, Glucose 5, adjusted to pH7.4 and an osmolarity of 298 mOsmol.
(§4) All compounds were initially tested at 10 uM at a final DMSO concentration of 0.33%. Compounds were dissolved in dimethylsulfoxide (DMSO) at a stock concentration of 30 mM. The compound was further diluted 1:10 to give a stock concentration of 3 mM in DMSO. The final assay solution was diluted 1:300 in External solution to give a final concentration of 10 uM. For the DMSO Control Buffer 30 uL of DMSO was added to 10 mL buffer.
(§5) All electrophysiological recordings were performed at ambient temperature (21-23° C.) using automated patch clamp (Patchliner, Nanion Technologies GmbH) in the whole-cell configuration.
(§6) Cell membrane potentials were held at −80 mV, and currents were evoked by voltage steps (1000 ms duration) from −60 to +60 mV in 10 mV increments. This was performed first with vehicle (0.33% DMSO) and then with 10 uM compound, after a 3-minute incubation period. Data was taken from 4 cells per assay.
(§7) The recordings were analysed and selected using peak current amplitude (>100 pA at the −10 mV voltage step) in the absence of compound to eliminate unsuitable cells from analysis. Peak current amplitude was measured and recorded for each voltage step and data was normalised to the maximum current at +60 mV. The normalised Kv3.x currents following addition of the compound were then compared with the currents recorded prior to compound addition (vehicle control). Positive modulation was determined as % potentiation at the voltage step of −10 mV=[current (cmpd)/current (veh)]*100−100. % potentiation ≥50% was considered acceptable. In addition, voltage shift of the IV curve at V1/2 was measured. V1/2 of ≥−5 mV was also considered acceptable. IV curves were plotted in GraphPad Prism (software version 6.0) and fitted with a Boltzmann equation, where V1/2 is the voltage at half-maximal activation.

hKv3.2 = biological target: T2, hKv3.2 (Homo sapiens, UniProt Q96PR1); test: Automated patch clamp (Patchliner) whole-cell electrophysiology, Kv3.2; type: cell-based; conditions: 10 μM compound, CHO-K1 cells stably expressing hKv3.2; for activation at 10 µM: % potentiation of peak current at −10 mV voltage step vs vehicle; for Kv3.2 Activity at 10 μM Voltage Shift (mV): voltage shift of the IV curve at V1/2
T2 construct: expressed in transfected cells
T2 sequence (Q96PR1 1-638): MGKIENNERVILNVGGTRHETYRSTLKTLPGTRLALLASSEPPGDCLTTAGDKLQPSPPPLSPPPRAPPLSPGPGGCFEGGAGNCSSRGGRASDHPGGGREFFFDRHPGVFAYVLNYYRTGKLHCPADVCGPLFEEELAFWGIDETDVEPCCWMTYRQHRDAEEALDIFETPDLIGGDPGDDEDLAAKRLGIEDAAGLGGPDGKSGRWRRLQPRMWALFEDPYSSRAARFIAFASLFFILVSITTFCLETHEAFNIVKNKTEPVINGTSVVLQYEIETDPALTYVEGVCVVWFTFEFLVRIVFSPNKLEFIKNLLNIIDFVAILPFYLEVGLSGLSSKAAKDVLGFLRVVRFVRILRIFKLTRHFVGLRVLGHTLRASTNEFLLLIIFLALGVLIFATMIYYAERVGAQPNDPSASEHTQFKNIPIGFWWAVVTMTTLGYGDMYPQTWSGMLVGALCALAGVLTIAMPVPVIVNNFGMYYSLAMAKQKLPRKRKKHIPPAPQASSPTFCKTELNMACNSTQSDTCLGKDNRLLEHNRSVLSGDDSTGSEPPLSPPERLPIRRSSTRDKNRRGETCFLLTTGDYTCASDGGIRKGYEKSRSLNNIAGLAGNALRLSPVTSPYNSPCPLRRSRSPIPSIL
Experimental: as §1, §2, §3, §4, §5, §6, §7

Row | SMILES | Kv3.1 Activity at 10 μM Potentiation (%) (hKv3.1) | Kv3.1 Activity at 10 μM Voltage Shift (mV) (hKv3.1) | activation at 10 µM (hKv3.2) [%] | Kv3.2 Activity at 10 μM Voltage Shift (mV) (hKv3.2)
1 | CC[C@@]1(C)NC(=O)N(c2ccnc(Oc3ccc(C)c(OC)c3)c2)C1=O [Example 10, (5R)-5-ethyl-3-[2-(3-methoxy-4-methyl-phenoxy)-4-pyridyl]-5-methyl-imidazolidine-2,4-dione] | 72 | −5.46 | 21 | −2.67
2 | COc1cc(Oc2ccnc(N3C(=O)NC(C)(C)C3=O)c2)ccc1C [Example 44, 3-[4-(3-methoxy-4-methyl-phenoxy)-2-pyridyl]-5,5-dimethyl-imidazolidine-2,4-dione] | 45 | −3.03 | 28 | −2.81
3 | COc1cc(Oc2cc(N3C(=O)NC4(CCCC4)C3=O)ccn2)ccc1C [Example 33, 3-[2-(3-methoxy-4-methyl-phenoxy)-4-pyridyl]-1,3-diazaspiro[4.4]nonane-2,4-dione] | 64 | −5.74 | 22 | −2.72
4 | O=C1NC2(CCCC2)C(=O)N1c1ccnc(Oc2ccc3c(c2)OC(F)(F)O3)c1 [Example 36, 3-[2-[(2,2-difluoro-1,3-benzodioxol-5-yl)oxy]-4-pyridyl]-1,3-diazaspiro[4.4]nonane-2,4-dione] | 85 | −6.21 | 43 | −4.8
5 | COc1cc(Oc2nccc(N3C(=O)NC4(CCCC4)C3=O)c2F)ccc1C [Example 90, 3-[3-fluoro-2-(3-methoxy-4-methyl-phenoxy)-4-pyridyl]-1,3-diazaspiro[4.4]nonane-2,4-dione] | 217 | −10.39 | 121 | −7.43
6 | COc1cc(Oc2cc(N3C(=O)NC(C)(C)C3=O)ccn2)ccc1C [Example 1, 3-[2-(3-methoxy-4-methyl-phenoxy)-4-pyridyl]-5,5-dimethyl-imidazolidine-2,4-dione] | 53 | −2.9 | 21 | −1.23
7 | COc1cc(Oc2cc(N3C(=O)NC(C)(C)C3=O)ccn2)ccc1Cl [Example 8, 3-[2-(4-chloro-3-methoxy-phenoxy)-4-pyridyl]-5,5-dimethyl-imidazolidine-2,4-dione] | 32 | −4.09 | 22 | −2.39
8 | COc1cc(Oc2cc(N3C(=O)NC4(CCN(C)CC4)C3=O)ccn2)ccc1C [Example 30, 3-[2-(3-methoxy-4-methyl-phenoxy)-4-pyridyl]-8-methyl-1,3,8-triazaspiro[4.5]decane-2,4-dione] | 26 | −0.83 | -4 | 2.06
9 | COc1cc(Oc2cccc(N3C(=O)NC4(CCCCC4)C3=O)n2)ccc1C [Example 75, 3-[6-(3-methoxy-4-methyl-phenoxy)-2-pyridyl]-1,3-diazaspiro[4.5]decane-2,4-dione] | 15 | −4.01 | 5 | 0
10 | COc1cc(Oc2cc(N3C(=O)NC4(CCCCC4)C3=O)ccn2)ccc1C [Example 24, 3-[2-(3-methoxy-4-methyl-phenoxy)-4-pyridyl]-1,3-diazaspiro[4.5]decane-2,4-dione] |  |  | 42 | −5.52
11 | COc1cc(Oc2cc(N3C(=O)NC(C)(C)C3=O)ccn2)ccc1F [Example 6, 3-[2-[3-methoxy-4-fluorophenoxy]-4-pyridyl]-5,5-dimethyl-imidazolidine-2,4-dione] |  |  | 25 | −3.18
12 | CC[C@@]1(C)NC(=O)N(c2ccc(F)c(Oc3ccc(C)c(OC)c3)n2)C1=O [Example 89, (5R)-5-ethyl-3-[5-fluoro-6-(3-methoxy-4-methyl-phenoxy)-2-pyridyl]-5-methyl-imidazolidine-2,4-dione] |  |  | 28 | −2.58
13 | CC[C@@]1(C)NC(=O)N(c2ccnc(Oc3ccc4c(c3)OC(F)(F)O4)c2)C1=O [Example 16, (5R)-3-[2-[(2,2-difluoro-1,3-benzodioxol-5-yl)oxy]-4-pyridyl]-5-ethyl-5-methyl-imidazolidine-2,4-dione] |  |  | 47 | −3.63
14 | COc1cc(Oc2cc(N3C(=O)NC4(CCOCC4)C3=O)ccn2)ccc1C [Example 32, 3-[2-(3-methoxy-4-methyl-phenoxy)-4-pyridyl]-8-oxa-1,3-diazaspiro[4.5]decane-2,4-dione] | 19 | −2.06 |  | 
15 | CC[C@@]1(C)NC(=O)N(c2cccc(Oc3ccc(Cl)c(OC)c3)n2)C1=O [Example 62, (5R)-3-[6-(4-chloro-3-methoxy-phenoxy)-2-pyridyl]-5-ethyl-5-methyl-imidazolidine-2,4-dione] | 57 | −4.05 |  | 
16 | CC[C@H]1NC(=O)N(c2cccc(Oc3ccc(C#N)cc3C(C)(C)C)n2)C1=O [Example 57, 3-tert-butyl-4-[[6-[(4R)-4-ethyl-2,5-dioxo-imidazolidin-1-yl]-2-pyridyl]oxy]benzonitrile] | −23 | 2.18 |  | 
17 | CC[C@@]1(C)NC(=O)N(c2cccc(Oc3ccc(C)c(C)c3)n2)C1=O [Example 65, (5R)-3-[6-(3,4-dimethylphenoxy)-2-pyridyl]-5-ethyl-5-methyl-imidazolidine-2,4-dione] | 22 | −3.79 |  | 
